For assay [1], the target named is T1, SUMO (Homo sapiens, UniProt Q9UBT2).
T1 sequence (Q9UBT2 1-640): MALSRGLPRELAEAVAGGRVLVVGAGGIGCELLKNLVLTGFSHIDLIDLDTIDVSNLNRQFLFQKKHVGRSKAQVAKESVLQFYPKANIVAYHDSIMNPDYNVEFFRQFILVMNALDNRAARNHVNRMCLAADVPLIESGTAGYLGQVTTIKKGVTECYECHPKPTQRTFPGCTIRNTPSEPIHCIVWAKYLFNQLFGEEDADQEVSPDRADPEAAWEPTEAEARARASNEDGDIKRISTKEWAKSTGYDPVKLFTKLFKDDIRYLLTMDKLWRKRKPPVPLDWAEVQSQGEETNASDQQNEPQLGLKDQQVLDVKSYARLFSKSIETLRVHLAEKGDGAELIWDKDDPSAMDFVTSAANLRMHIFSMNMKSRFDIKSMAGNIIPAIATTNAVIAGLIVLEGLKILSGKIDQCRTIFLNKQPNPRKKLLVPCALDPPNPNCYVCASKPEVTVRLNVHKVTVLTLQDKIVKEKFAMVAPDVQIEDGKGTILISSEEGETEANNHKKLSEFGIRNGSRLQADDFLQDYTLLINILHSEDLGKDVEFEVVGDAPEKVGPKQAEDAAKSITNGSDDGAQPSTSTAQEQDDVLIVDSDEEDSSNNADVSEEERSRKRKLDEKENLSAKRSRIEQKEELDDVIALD
T1 sequence (Q9UBE0 1-346 partner): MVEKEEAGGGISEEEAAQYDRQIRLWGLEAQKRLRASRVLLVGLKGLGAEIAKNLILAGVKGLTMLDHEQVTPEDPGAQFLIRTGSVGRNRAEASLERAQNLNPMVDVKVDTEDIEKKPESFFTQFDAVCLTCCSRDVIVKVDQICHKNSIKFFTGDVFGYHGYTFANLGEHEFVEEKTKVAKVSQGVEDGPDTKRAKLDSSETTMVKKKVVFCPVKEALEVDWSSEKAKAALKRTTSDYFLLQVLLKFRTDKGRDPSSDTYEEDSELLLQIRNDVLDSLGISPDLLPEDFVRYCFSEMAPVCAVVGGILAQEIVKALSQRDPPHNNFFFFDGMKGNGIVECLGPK
The experiment in a line: SUMO activity (Table I, biological activities). It is filed as biochemical. The arrangement: key: + (less active); ++ (active); +++ (most active).

Assay [2] has as its system c-Myc. The assay is described as follows: c-Myc activity (Table I, biological activities). Also noted: key: + (less active); ++ (active); +++ (most active).

The results in this text go back to US11578079B2, “SUMO inhibitor compounds and uses thereof” (CITY OF HOPE, priority 2018, dated 2023).

For `COC(=O)C1=C(C(=O)NC2CCN(C)CC2)C2C=CC1(C(Cc1ccc(C(F)(F)F)cc1)Nc1ccccc1)O2` (stereo not drawn) [Compound 488], the SUMO entry in assay [1] was “++”. The c-Myc result in assay [2] is recorded as “++”.
Turning to `COC(=O)C1=C(C(=O)Nc2ccc(CN3CCCC3)cc2)C2C=CC1(C(Cc1ccccc1)Nc1ccccc1)O2` (stereo not drawn) [Compound 508], the SUMO result in assay [1] was “++”. In assay [2], the c-Myc entry is “+”.
Taken in the same sequence, the figures for `CCOc1cccc(NC(Cc2ccccc2)C23C=CC(O2)C(C(=O)NC2CCN(C)CC2)=C3C(=O)OC)c1` (stereo not drawn) [Compound 247] were “+++” and “+”.
With `COC(=O)C1=C(C(=O)NC2CCN(C(C)C)CC2)C2C=CC1(C(Cc1ccccc1)Oc1ccccc1)O2` (stereo not drawn) [Compound 324], the SUMO entry in assay [1] is on record as “++”. For the same molecule, the c-Myc entry in assay [2] is on record as “++”.
For the molecule `Cc1ccc(S(=O)(=O)C2=CC3(C4OCCO4)C=CC2O3)cc1` (stereo not drawn) [Compound 516], the SUMO entry in assay [1] is “++”. Further, in assay [2], the c-Myc entry is given as “+”.
Taken in the same sequence, the figures for `CCOC(=O)C1=C(C(=O)Nc2ccc(Oc3ccccc3)cc2)C2C=CC1(C(Nc1ccccc1)c1ccc(CN3CCOCC3)cc1)O2` (stereo not drawn) [Compound 569] were “+” and “+”.
Taken in the same sequence, the figures for `COC(=O)C1=C(C(=O)NCCN(C)C)C2C=CC1(C(Cc1ccccc1)Oc1ccccc1)O2` (stereo not drawn) [Compound 438] were “++” and “++”.
Taken in the same sequence, the figures for `COC(=O)C1=C(C(=O)NCCN2CCOCC2)C2C=CC1(C(Cc1ccccc1)Oc1ccccc1)O2` (stereo not drawn) [Compound 326] were “++” and “++”.
Take `COC(=O)CNC(=O)C1=C(C(=O)OC)C2(C(Cc3ccccc3)Nc3cc(F)cc(F)c3)C=CC1O2` (stereo not drawn) [Compound 245]: in assay [1], the SUMO result was “+++”. Also, the c-Myc entry in assay [2] was “++”.
Taken in the same sequence, the figures for `COCCNC(=O)C1=C(C(=O)OC)C2(C(Cc3ccccc3)Nc3ccccc3)C=CC1O2` (stereo not drawn) [Compound 403] were “++” and “+”.
Taken in the same sequence, the figures for `CCOC(=O)C1=C(C(=O)Nc2ccc(C)c(F)c2)C2C=CC1(C(Nc1ccc(C)cc1)c1ccc(CN3CCOCC3)cc1)O2` (stereo not drawn) [Compound 613] were “+” and “+”.
Taken in the same sequence, the figures for `COC(=O)C1=C(C(=O)NCCN2CCCC2)C2C=CC1(C(Cc1ccccc1)Nc1cc(F)cc(Cl)c1)O2` (stereo not drawn) [Compound 444] were “+++” and “++”.
Take `COC(=O)C1=C(C(=O)Nc2ccc(CN3CCOCC3)cc2)C2C=CC1(C(Cc1ccccc1)Nc1ccccc1)O2` (stereo not drawn) [Compound 507]: the SUMO entry in assay [1] was “++”. The c-Myc result in assay [2] is listed as “+”.
Taken in the same sequence, the figures for `COC(=O)C1=C(C(=O)NC2CCN(C(=O)Cc3ccccc3)CC2)C2C=CC1(C(Cc1ccccc1)Nc1ccccc1)O2` (stereo not drawn) [Compound 387] were “++” and “+”.
Taken in the same sequence, the figures for `COC(=O)C1=C(C(=O)NC2CCN(C(=O)OC(C)(C)C)CC2)C2C=CC1(C(Cc1ccccc1)Nc1cc(F)cc(F)c1)O2` (stereo not drawn) [Compound 242] were “++” and “+”.
Taken in the same sequence, the figures for `O=C(C1=CC2(C3OCCO3)C=CC1O2)c1ccc(F)cc1` (stereo not drawn) [Compound 523] were “++” and “+”.
Regarding `CCN(CC)CCNC(=O)C1=C(C(=O)OC)C2(C(Cc3cccc(F)c3)Nc3cc(F)cc(F)c3)C=CC1O2` (stereo not drawn) [Compound 436], in assay [1], the SUMO result is “+++”. The c-Myc entry in assay [2] is listed as “++”.
Taken in the same sequence, the figures for `COC(=O)C1=C(C(=O)Nc2ccc(N3CCN(C)CC3)c(F)c2)C2C=CC1(C(Cc1ccccc1)Nc1ccccc1)O2` (stereo not drawn) [Compound 494] were “+” and “+”.
For `CCOc1cccc(NC(Cc2ccccc2)C23C=CC(O2)C(C(=O)NC2CCN(C)C2)=C3C(=O)OC)c1` (stereo not drawn) [Compound 248], the SUMO entry in assay [1] was “+++”. In addition, in assay [2], the c-Myc result was “++”.
Consider `COC(=O)C1=C(C(=O)NC2CCN(C(=O)c3ccc(Cl)s3)CC2)C2C=CC1(C(Cc1ccccc1)Nc1ccccc1)O2` (stereo not drawn) [Compound 392], for which the SUMO result in assay [1] is “++”. In assay [2], the c-Myc entry was “+”.
As to `COC(=O)C1=C(C(=O)Nc2ccc3c(c2)OCO3)C2C=CC1(C(Cc1ccccc1)Nc1ccccc1)O2` (stereo not drawn) [Compound 309], in assay [1], the SUMO result is “+”. Moreover, in assay [2], the c-Myc result is given as “+”.
As for `COC(=O)C1=C(C(=O)Nc2cccnc2)C2C=CC1(C(Cc1ccccc1)Nc1cc(F)cc(F)c1)O2` (stereo not drawn) [Compound 241], the SUMO entry in assay [1] is listed as “++”. Further, the c-Myc entry in assay [2] is “++”.
Take `COC(=O)C1=C(C(=O)NCCN(C)C)C2C=CC1(C(Cc1ccccc1)Nc1cc(F)cc(Cl)c1)O2` (stereo not drawn) [Compound 227]: the SUMO entry in assay [1] was “+++”. In assay [2], the c-Myc result was “+”.
Taken in the same sequence, the figures for `COC(=O)C1=C(C(=O)NC2CCN(C(=O)c3ccsc3)CC2)C2C=CC1(C(Cc1ccccc1)Nc1ccccc1)O2` (stereo not drawn) [Compound 383] were “++” and “+”.
Taken in the same sequence, the figures for `CCN(CC)CCNC(=O)C1=C(C(=O)OC)C2(C(Cc3ccc(C)cc3)Nc3cc(F)cc(F)c3)C=CC1O2` (stereo not drawn) [Compound 430] were “++” and “++”.
Taken in the same sequence, the figures for `COC(=O)C1=C(C(N)=O)C2C=CC1(C(Cc1ccccc1)Nc1cccc(Oc3ccccc3)c1)O2` (stereo not drawn) [Compound 319] were “+++” and “+”.
On to `COC(=O)C1=C(C(=O)Nc2ccc(OCCN3CCN(C)CC3)cc2)C2C=CC1(C(Cc1ccccc1)Nc1ccccc1)O2` (stereo not drawn) [Compound 501], for which, in assay [1], the SUMO result was “+++”. For the same molecule, the c-Myc result in assay [2] is on record as “+”.
Turning to `COC(=O)C1=C(C(=O)NC2CCN(C(=O)c3cccc(F)c3)CC2)C2C=CC1(C(Cc1ccccc1)Nc1ccccc1)O2` (stereo not drawn) [Compound 386], in assay [1], the SUMO result is on record as “++”. In addition, the c-Myc entry in assay [2] is given as “+”.
On to `COC(=O)C1=C(C(=O)O)C2C=CC1(C(Cc1ccccc1)Nc1cc(F)cc(Cl)c1)O2` (stereo not drawn) [Compound 214], for which the SUMO result in assay [1] was “++”. For the same molecule, the c-Myc entry in assay [2] is “+”.
Taken in the same sequence, the figures for `COC(=O)C1=C(C(=O)NC2CCN(C)CC2)C2C=CC1(C(Cc1ccccc1)Nc1cc(F)cc(Cl)c1)O2` (stereo not drawn) [Compound 219] were “++” and “++”.
Taken in the same sequence, the figures for `COC(=O)C1=C(C(=O)NC2CCN(C)C2)C2C=CC1(C(Cc1ccccc1)Nc1cc(F)cc(F)c1)O2` (stereo not drawn) [Compound 256] were “++” and “+”.
As for `COC(=O)C1=C(C(=O)Nc2cccc(F)c2)C2C=CC1(C(Cc1ccccc1)Nc1ccccc1)O2` (stereo not drawn) [Compound 276], the SUMO result in assay [1] is “++”. Also, the c-Myc result in assay [2] was “+”.
`COC(=O)C1=C(C(=O)NCCN(C)C)C2C=CC1(C(Cc1ccccc1)Nc1ccccc1)O2` (stereo not drawn) [Compound 224]: in assay [1], the SUMO result is given as “+++”. For the same molecule, the c-Myc entry in assay [2] is on record as “++”.
Taken in the same sequence, the figures for `CCN(CC)CCNC(=O)C1=C(C(=O)OC)C2(C(Cc3ccccc3)Nc3ccc(F)cc3F)C=CC1O2` (stereo not drawn) [Compound 410] were “++” and “+”.
Taken in the same sequence, the figures for `COC(=O)C1=C(C(=O)NC2CCN(CCO)CC2)C2C=CC1(C(Cc1ccccc1)Nc1ccccc1)O2` (stereo not drawn) [Compound 279] were “+++” and “++”.
On to `CCOC(=O)C1=C(C(=O)Nc2ccc(OC)cc2)C2C=CC1(C(Nc1ccccc1)c1ccc(CN3CCOCC3)cc1)O2` (stereo not drawn) [Compound 567], for which, in assay [1], the SUMO entry was “++”. Also, the c-Myc entry in assay [2] was “+”.
